# Where two headings read alike, the source gives them in different places.
# Legend:
# [1] = molecular target: wild-type un-phosphorylated FGFR3 (Homo sapiens, UniProt P22607); test: FGFR Enzymatic Assay (FRET peptide phosphorylation), FGFR3
# [2] = molecular target: wild-type un-phosphorylated FGFR1 (Homo sapiens, UniProt P11362); test: FGFR Enzymatic Assay (FRET peptide phosphorylation), FGFR1; conditions: pre-incubated for 4 hours
# Experimental: The inhibitor potency of the exemplified compounds was determined in an enzyme discontinuous assay that measures peptide phosphorylation using FRET measurements to detect product formation. Inhibitors were serially diluted in DMSO and a volume of 0.2 μL was transferred to the wells of a 384-well plate. […] Appropriate controls (enzyme blank and enzyme with no inhibitor) were included on the plate. […] The 10 μL/well reaction concentration of the peptide substrate was 500 nM whereas the ATP concentration was maintained near or below the ATP Km. The ATP Km values were pre-determined in a separate series of experiments. The reaction plate was incubated at 25° C. for 1 hr and the reactions were ended with the addition of 5 μL/well of quench solution (50 mM Tris, 150 mM NaCl, 0.5 mg/mL BSA, pH 7.8; 45 mM EDTA, 600 nM staurosporin, with Perkin Elmer Lance Reagents at 3.75 nM Eu-antibody PY20 and 180 nM APC-Streptavidin). The plate was allowed to equilibrate for ˜10 minutes at ambient temperature before scanning on a PheraStar plate reader (BMG Labtech) instrument.
# Either GraphPad prism or XLfit was used to analyze the data. The IC50 values were derived by fitting the data to a four parameter logistic equation producing a sigmoidal dose-response curve with a variable Hill coefficient. Prism equation: Y=Bottom+(Top-Bottom)/(1+10^((Log IC50-X)*Hill slope)); XLfit equation: Y=(A+((B−A)/(1+((X/C)^D)))) where X is the logarithm of inhibitor concentration and Y is the response.
# GraphPad prism3 was used to analyze the data. The IC50 values were derived by fitting the data to the equation for a sigmoidal dose-response with a variable slope. Y=Bottom+(Top-Bottom)/(1+10^((Log IC50-X)*Hill Slope)) where X is the logarithm of concentration and Y is the response.
# The data in Table 1 was measured in wild-type un-phosphorylated FGFR1, FGFR2, FGFR3, and FGFR4 proteins.
# [3] = molecular target: wild-type un-phosphorylated FGFR4 (Homo sapiens, UniProt P22455); test: FGFR Enzymatic Assay (FRET peptide phosphorylation), FGFR4
# [4] = molecular target: wild-type un-phosphorylated FGFR2 (Homo sapiens, UniProt P21802); test: FGFR Enzymatic Assay (FRET peptide phosphorylation), FGFR2
# [5] = FGFR1, wild-type un-phosphorylated FGFR1
# [6] = read-out: FGFR2, wild-type un-phosphorylated FGFR2, pre-incubated for 4 hours
# [7] = read-out: FGFR1, wild-type un-phosphorylated FGFR1
# [8] = read-out: FGFR4, wild-type un-phosphorylated FGFR4, pre-incubated for 4 hours
# wild-type un-phosphorylated FGFR2, sequence (P21802 22-821): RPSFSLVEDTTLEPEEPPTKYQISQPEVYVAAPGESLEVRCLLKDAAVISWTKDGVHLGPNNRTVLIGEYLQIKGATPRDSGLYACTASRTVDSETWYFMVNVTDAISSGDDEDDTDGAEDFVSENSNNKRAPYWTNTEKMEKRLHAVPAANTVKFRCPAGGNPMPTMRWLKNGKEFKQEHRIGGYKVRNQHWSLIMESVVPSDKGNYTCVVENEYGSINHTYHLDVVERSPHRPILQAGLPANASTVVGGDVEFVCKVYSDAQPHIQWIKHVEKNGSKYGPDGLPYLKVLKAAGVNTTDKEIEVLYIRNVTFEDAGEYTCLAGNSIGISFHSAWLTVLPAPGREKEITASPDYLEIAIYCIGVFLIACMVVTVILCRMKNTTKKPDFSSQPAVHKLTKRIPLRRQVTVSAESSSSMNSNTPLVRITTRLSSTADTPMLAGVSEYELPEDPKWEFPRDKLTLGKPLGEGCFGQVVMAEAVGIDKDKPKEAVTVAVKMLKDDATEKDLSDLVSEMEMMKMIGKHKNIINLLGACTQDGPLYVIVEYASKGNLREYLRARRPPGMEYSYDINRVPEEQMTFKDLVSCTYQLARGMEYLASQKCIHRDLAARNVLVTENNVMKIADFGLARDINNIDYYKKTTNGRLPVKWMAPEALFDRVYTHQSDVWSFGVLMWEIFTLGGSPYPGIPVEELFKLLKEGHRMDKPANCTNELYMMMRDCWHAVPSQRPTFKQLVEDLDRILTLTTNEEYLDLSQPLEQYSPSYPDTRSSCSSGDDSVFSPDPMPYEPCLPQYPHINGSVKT
# wild-type un-phosphorylated FGFR1, sequence (P11362 22-822): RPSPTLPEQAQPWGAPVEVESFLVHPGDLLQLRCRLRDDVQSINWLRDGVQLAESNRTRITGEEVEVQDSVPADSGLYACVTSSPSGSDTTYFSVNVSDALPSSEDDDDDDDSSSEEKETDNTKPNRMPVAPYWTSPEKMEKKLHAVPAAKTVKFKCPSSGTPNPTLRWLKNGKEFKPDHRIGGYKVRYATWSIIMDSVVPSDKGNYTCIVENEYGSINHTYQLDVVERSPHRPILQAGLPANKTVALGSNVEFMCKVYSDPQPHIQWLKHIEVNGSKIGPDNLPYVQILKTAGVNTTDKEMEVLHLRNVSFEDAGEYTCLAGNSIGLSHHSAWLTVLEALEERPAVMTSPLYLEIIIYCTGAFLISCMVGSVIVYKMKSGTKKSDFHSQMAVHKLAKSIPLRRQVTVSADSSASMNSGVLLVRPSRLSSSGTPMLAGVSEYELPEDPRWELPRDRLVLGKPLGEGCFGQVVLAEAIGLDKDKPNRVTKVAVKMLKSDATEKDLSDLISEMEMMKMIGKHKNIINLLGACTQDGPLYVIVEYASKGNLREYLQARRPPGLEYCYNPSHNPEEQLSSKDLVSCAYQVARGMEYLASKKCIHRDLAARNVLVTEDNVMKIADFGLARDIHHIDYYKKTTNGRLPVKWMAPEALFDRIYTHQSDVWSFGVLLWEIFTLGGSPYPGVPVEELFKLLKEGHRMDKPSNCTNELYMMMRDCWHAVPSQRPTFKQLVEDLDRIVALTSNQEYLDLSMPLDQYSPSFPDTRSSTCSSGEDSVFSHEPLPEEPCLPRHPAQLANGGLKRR
# wild-type un-phosphorylated FGFR3, sequence (P22607 23-806): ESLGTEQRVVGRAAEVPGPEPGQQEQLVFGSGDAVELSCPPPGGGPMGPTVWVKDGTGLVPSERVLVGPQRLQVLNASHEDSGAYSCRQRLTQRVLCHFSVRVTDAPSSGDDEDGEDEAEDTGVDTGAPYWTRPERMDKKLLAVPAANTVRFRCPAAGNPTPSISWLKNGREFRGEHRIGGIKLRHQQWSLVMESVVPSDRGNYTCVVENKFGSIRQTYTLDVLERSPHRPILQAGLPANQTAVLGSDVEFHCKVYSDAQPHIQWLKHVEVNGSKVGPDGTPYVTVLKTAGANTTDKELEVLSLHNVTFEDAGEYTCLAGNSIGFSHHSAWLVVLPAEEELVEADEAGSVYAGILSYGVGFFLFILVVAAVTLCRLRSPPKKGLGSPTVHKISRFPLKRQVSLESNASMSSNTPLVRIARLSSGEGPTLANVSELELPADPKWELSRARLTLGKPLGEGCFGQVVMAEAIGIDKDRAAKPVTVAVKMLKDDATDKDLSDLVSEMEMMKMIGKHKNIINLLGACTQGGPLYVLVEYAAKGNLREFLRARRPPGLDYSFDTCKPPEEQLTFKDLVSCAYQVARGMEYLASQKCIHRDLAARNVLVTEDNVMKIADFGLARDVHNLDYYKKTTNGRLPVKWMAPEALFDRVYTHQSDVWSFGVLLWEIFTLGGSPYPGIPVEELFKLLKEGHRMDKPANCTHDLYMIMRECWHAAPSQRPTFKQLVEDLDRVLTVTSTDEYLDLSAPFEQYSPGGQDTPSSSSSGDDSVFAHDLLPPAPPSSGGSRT
# wild-type un-phosphorylated FGFR4, sequence (P22455 22-802): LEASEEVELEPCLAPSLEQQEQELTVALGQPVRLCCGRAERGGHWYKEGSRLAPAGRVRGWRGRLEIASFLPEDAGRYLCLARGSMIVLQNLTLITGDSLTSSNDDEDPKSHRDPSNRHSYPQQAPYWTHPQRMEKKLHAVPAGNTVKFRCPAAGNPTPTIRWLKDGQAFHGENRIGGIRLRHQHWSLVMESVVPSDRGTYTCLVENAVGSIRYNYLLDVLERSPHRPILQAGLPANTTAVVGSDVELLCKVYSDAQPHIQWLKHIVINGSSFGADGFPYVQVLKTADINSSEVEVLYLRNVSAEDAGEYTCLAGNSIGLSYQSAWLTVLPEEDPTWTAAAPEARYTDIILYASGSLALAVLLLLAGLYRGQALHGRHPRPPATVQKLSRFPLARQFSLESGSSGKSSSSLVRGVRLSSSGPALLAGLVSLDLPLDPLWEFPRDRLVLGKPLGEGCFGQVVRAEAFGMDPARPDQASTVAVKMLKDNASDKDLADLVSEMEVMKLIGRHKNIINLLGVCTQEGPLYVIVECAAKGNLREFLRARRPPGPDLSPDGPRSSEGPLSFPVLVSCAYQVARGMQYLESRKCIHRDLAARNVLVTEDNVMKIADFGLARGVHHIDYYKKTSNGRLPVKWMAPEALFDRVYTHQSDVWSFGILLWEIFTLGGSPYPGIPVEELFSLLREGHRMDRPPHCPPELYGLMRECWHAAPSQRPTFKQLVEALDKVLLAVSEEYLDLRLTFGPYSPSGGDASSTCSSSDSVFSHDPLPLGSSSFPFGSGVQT
IC50 [1],"IC50 [2, 5]",IC50 [3],"IC50 [4, 6]",IC50 [4],"IC50 [2, 7]","IC50 [3, 8]",SMILES
< 6 nM,40 to 100 nM,40 to 100 nM,–,< 6 nM,–,–,"[2H]C1(n2cc(-c3n[nH]c4cc(OC)c(-c5cccc6c5CCC6C#N)nc34)cn2)CCN(C(=O)C2CCOCC2)CC1 (centres unmarked) [Example 167, 4-(6-Methoxy-3-(1-(1-(tetrahydro-2H-pyran-4-carbonyl)piperidin-4-yl-4-d)-1H-pyrazol-4-yl)-1H-pyrazolo[4,3-b]pyridin-5-yl)-2,3-dihydro-1H-indene-1-carbonitrile]"
< 6 nM,40 to 100 nM,40 to 100 nM,–,< 6 nM,–,–,"COc1cc2[nH]nc(-c3ccc(CN4C[C@H]5C[C@@H]4CO5)nc3)c2nc1-c1cccc2c1CCC2 [Example 200, (1R,4R)-5-((5-(5-(2,3-Dihydro-1H-inden-4-yl)-6-methoxy-1H-pyrazolo[4,3-b]pyridin-3-yl)pyridin-2-yl)methyl)-2-oxa-5-azabicyclo[2.2.1]heptane]"
< 6 nM,–,40 to 100 nM,–,< 6 nM,6 to 40 nM,–,"COc1cc2[nH]nc(-c3cnn(C4CN(S(=O)(=O)CCN(C)C)C4)c3)c2nc1-c1cccc2c1CCC2 [Example 151, 2-((3-(4-(5-(2,3-Dihydro-1H-inden-4-yl)-6-methoxy-1H-pyrazolo[4,3-b]pyridin-3-yl)-1H-pyrazol-1-yl)azetidin-1-yl)sulfonyl)-N,N-dimethylethan-1-amine]"
< 6 nM,–,40 to 100 nM,–,< 6 nM,6 to 40 nM,–,"COc1cc2[nH]nc(-c3cnn(C4CN(C(=O)[C@H]5CCN5C)C4)c3)c2nc1-c1cccc2c1CCC2 [Example 122, (R)-(3-(4-(5-(2,3-Dihydro-1H-inden-4-yl)-6-methoxy-1H-pyrazolo[4,3-b]pyridin-3-yl)-1H-pyrazol-1-yl)azetidin-1-yl)(1-methylazetidin-2-yl)methanone]"
< 6 nM,40 to 100 nM,> 100 nM,–,< 6 nM,–,–,"COc1cc2[nH]nc(-c3ccc(C4CCC(N(C)S(C)(=O)=O)C4)nc3)c2nc1-c1cccc2c1CCC2 (centres unmarked) [Example 154, N-(3-(5-(5-(2,3-Dihydro-1H-inden-4-yl)-6-methoxy-1H-pyrazolo[4,3-b]pyridin-3-yl)pyridin-2-yl)cyclopentyl)-N-methylmethanesulfonamide]"
< 6 nM,–,40 to 100 nM,–,< 6 nM,6 to 40 nM,–,"COc1cc2[nH]nc(-c3cnn([C@H]4CCN(C(=O)[C@@H]5CCCO5)C4)c3)c2nc1-c1cccc2c1CCC2C#N (stereo partly drawn) [Example 169, 4-(6-Methoxy-3-(1-((S)-1-((S)-tetrahydrofuran-2-carbonyl)pyrrolidin-3-yl)-1H-pyrazol-4-yl)-1H-pyrazolo[4,3-b]pyridin-5-yl)-2,3-dihydro-1H-indene-1-carbonitrile]"
< 6 nM,–,40 to 100 nM,–,< 6 nM,6 to 40 nM,–,"COc1cc2[nH]nc(-c3cnn(C4CN(C(=O)CN5CCN(C)CC5)C4)c3)c2nc1-c1cccc2c1CCC2 [Example 120, 1-(3-(4-(5-(2,3-Dihydro-1H-inden-4-yl)-6-methoxy-1H-pyrazolo[4,3-b]pyridin-3-yl)-1H-pyrazol-1-yl)azetidin-1-yl)-2-(4-methylpiperazin-1-yl)ethan-1-one]"
< 6 nM,40 to 100 nM,40 to 100 nM,–,< 6 nM,–,–,"COc1cc2[nH]nc(-c3cnn(C4CN(S(=O)(=O)CCO)C4)c3)c2nc1-c1cccc2c1CCC2 [Example 150, 2-((3-(4-(5-(2,3-Dihydro-1H-inden-4-yl)-6-methoxy-1H-pyrazolo[4,3-b]pyridin-3-yl)-1H-pyrazol-1-yl)azetidin-1-yl)sulfonyl)ethan-1-ol]"
< 6 nM,–,–,–,< 6 nM,6 to 40 nM,6 to 40 nM,"COc1cc2[nH]nc(-c3ccc(N4CC(N(C)C(=O)CO)C4)nc3)c2nc1-c1cccc2c1CCC2 [Example 171, N-(1-(5-(5-(2,3-Dihydro-1H-inden-4-yl)-6-methoxy-1H-pyrazolo[4,3-b]pyridin-3-yl)pyridin-2-yl)azetidin-3-yl)-2-hydroxy-N-methylacetamide]"
< 6 nM,–,–,–,< 6 nM,6 to 40 nM,6 to 40 nM,"COc1cc2[nH]nc(-c3ccc(C4CN(CCC#N)C4)nc3)c2nc1-c1cccc2c1CCC2 [Example 187, 3-(3-(5-(5-(2,3-Dihydro-1H-inden-4-yl)-6-methoxy-1H-pyrazolo[4,3-b]pyridin-3-yl)pyridin-2-yl)azetidin-1-yl)propanenitrile]"
< 6 nM,–,–,–,< 6 nM,6 to 40 nM,6 to 40 nM,"COCC(=O)N1CC[C@H](n2cc(-c3n[nH]c4cc(OC)c(-c5cccc6c5CCC6C#N)nc34)cn2)C1 (single isomer, unassigned) [Example 168]"
< 6 nM,–,40 to 100 nM,–,< 6 nM,6 to 40 nM,–,"COc1cc2[nH]nc(-c3cnn(C4CN(C(=O)C(C)(C)N(C)C)C4)c3)c2nc1-c1cccc2c1CCC2 [Example 148, 1-(3-(4-(5-(2,3-Dihydro-1H-inden-4-yl)-6-methoxy-1H-pyrazolo[4,3-b]pyridin-3-yl)-1H-pyrazol-1-yl)azetidin-1-yl)-2-(dimethylamino)-2-methylpropan-1-one]"
< 6 nM,–,40 to 100 nM,–,< 6 nM,6 to 40 nM,–,"COc1cc2[nH]nc(-c3cnn(C4CN(C(=O)C[C@@H](C)O)C4)c3)c2nc1-c1cccc2c1CCC2 [Example 134, (R)-1-(3-(4-(5-(2,3-Dihydro-1H-inden-4-yl)-6-methoxy-1H-pyrazolo[4,3-b]pyridin-3-yl)-1H-pyrazol-1-yl)azetidin-1-yl)-3-hydroxybutan-1-one]"

# More lines, now with the values behind:
SMILES,IC50 [1],"IC50 [2, 5]",IC50 [3],"IC50 [4, 6]",IC50 [4],"IC50 [2, 7]","IC50 [3, 8]"
"COc1cc2[nH]nc(-c3ccc(C4CC4)nc3)c2nc1-c1cccc2c1CC(O)C2 (centres unmarked) [Example 97, 4-(3-(6-Cyclopropylpyridin-3-yl)-6-methoxy-1H-pyrazolo[4,3-b]pyridin-5-yl)-2,3-dihydro-1H-inden-2-ol]",< 6 nM,40 to 100 nM,> 100 nM,6 to 40 nM,–,–,–
"COc1cc2[nH]nc(-c3cnn(C4CN(C(C)=O)C4)c3)c2nc1-c1cccc2c1CCC2 [Example 22, 1-(3-(4-(5-(2,3-Dihydro-1H-inden-4-yl)-6-methoxy-1H-pyrazolo[4,3-b]pyridin-3-yl)-1H-pyrazol-1-yl)azetidin-1-yl)ethan-1-one]",< 6 nM,40 to 100 nM,40 to 100 nM,–,< 6 nM,–,–
"Cc1cccc(-c2nc3c(-c4cnn(C)c4)n[nH]c3cc2CO)c1C [Example 38, (5-(2,3-Dimethylphenyl)-3-(1-methyl-1H-pyrazol-4-yl)-1H-pyrazolo[4,3-b]pyridin-6-yl)methanol]",< 6 nM,> 100 nM,> 100 nM,6 to 40 nM,–,–,–
"COc1cc2[nH]nc(-c3cnn(CCN4CCOCC4)c3)c2nc1-c1cccc2c1CCC2 [Example 28, 4-(2-(4-(5-(2,3-Dihydro-1H-inden-4-yl)-6-methoxy-1H-pyrazolo[4,3-b]pyridin-3-yl)-1H-pyrazol-1-yl)ethyl)morpholine]",< 6 nM,40 to 100 nM,> 100 nM,–,< 6 nM,–,–
"COc1cc2[nH]nc(-c3ccc(N4CCN(CCO)CC4)nc3)c2nc1-c1cccc2c1CCC2C#N (centres unmarked) [Example 114, 4-(3-(6-(4-(2-Hydroxyethyl)piperazin-1-yl)pyridin-3-yl)-6-methoxy-1H-pyrazolo[4,3-b]pyridin-5-yl)-2,3-dihydro-1H-indene-1-carbonitrile]",< 6 nM,–,–,–,< 6 nM,6 to 40 nM,6 to 40 nM
"COc1cc2[nH]nc(-c3ccc(C4CCN(C(C)=O)C4)nc3)c2nc1-c1cccc2c1CCC2 (single isomer, unassigned) [Example 103, 1-(3-(5-(5-(2,3-Dihydro-1H-inden-4-yl)-6-methoxy-1H-pyrazolo[4,3-b]pyridin-3-yl)pyridin-2-yl)pyrrolidin-1-yl)ethan-1-one]",< 6 nM,–,–,–,< 6 nM,6 to 40 nM,6 to 40 nM
"COc1cc2[nH]nc(-c3cnn(C4CN(C(=O)[C@@H]5CCN5C)C4)c3)c2nc1-c1cccc2c1CCC2 [Example 119, (S)-(3-(4-(5-(2,3-Dihydro-1H-inden-4-yl)-6-methoxy-1H-pyrazolo[4,3-b]pyridin-3-yl)-1H-pyrazol-1-yl)azetidin-1-yl)(1-methylazetidin-2-yl)methanone]",< 6 nM,–,40 to 100 nM,–,< 6 nM,6 to 40 nM,–
"COc1cc2[nH]nc(-c3cnn(CCO)c3)c2nc1-c1cccc2c1CCC2 [Example 31, 2-(4-(5-(2,3-Dihydro-1H-inden-4-yl)-6-methoxy-1H-pyrazolo[4,3-b]pyridin-3-yl)-1H-pyrazol-1-yl)ethan-1-ol]",< 6 nM,40 to 100 nM,40 to 100 nM,–,< 6 nM,–,–
"COc1cc2[nH]nc(-c3cnn([C@H]4CC[C@H](O)CC4)c3)c2nc1-c1cccc2c1CCC2 [Example 33, (trans)-4-(4-(5-(2,3-Dihydro-1H-inden-4-yl)-6-methoxy-1H-pyrazolo[4,3-b]pyridin-3-yl)-1H-pyrazol-1-yl)cyclohexan-1-ol]",< 6 nM,40 to 100 nM,> 100 nM,–,< 6 nM,–,–
"COc1cc2[nH]nc(-c3ccc(N4CCCC4)nc3)c2nc1-c1cccc2c1CCC2 [Example 57, 5-(2,3-Dihydro-1H-inden-4-yl)-6-methoxy-3-(6-(pyrrolidin-1-yl)pyridin-3-yl)-1H-pyrazolo[4,3-b]pyridine]",< 6 nM,> 100 nM,> 100 nM,–,< 6 nM,–,–
